Results published in patent US20060211747A1, “Methods of screening for compounds which inhibit the activity of Cdc34 in a zinc-mediated manner and compounds obtained by this method” (priority 2004, published 2006).
Where two headings read alike, the source gives them in different places. Blank lines part the entries; values can stand above or below the compound they belong to.

Legend:
Type in all cases: biochemical
[1] = biological target: T1, Cdc34-FLAG (ubiquitin conjugating enzyme Cdc34, SwissProt P49427) (Homo sapiens, UniProt P49427); test: Cdc34 thioester assay (time resolved fluorescence)
T1 construct: GST with Factor Xa cleavage site (N, cleaved yes); made in house; host or cells: baculovirus, High Five insect cells
T1 sequence (P49427 1-236): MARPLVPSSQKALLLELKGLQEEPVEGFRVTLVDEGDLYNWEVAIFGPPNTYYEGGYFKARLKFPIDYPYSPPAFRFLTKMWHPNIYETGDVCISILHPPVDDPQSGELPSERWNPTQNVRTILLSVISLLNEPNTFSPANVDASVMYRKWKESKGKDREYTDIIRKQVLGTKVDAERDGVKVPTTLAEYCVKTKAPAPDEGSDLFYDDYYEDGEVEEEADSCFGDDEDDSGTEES
Method: (§1) Cdc34 thioester assay: Here, we describe an assay, based on time resolved fluorescence, to monitor the formation of the thioester intermediate between ubiquitin and the ubiquitin-conjugating enzyme Cdc34. The assay is aimed at screening for inhibitors of Cdc34 thioester formation and requires Eu-labelled ubiquitin (Eu—Ub), GST-E1 and Cdc34-FLAG. • Mix: In non-absorbing plates • 10 μl Test compound 5×conc. in 5% DMSO • 30 μl Cdc34-FLAG (20.8 nM) in 1×TEB (no ATP) • Incubate 10 min at RT • Add: 10 μl Eu—Ub (31.2 nM), GST-E1 (125 nM) in 1×TEB+ATP (Pre-incubated 10 min at RT). • Incubate 30 min at RT • Final Concentrations: Test compound 50/12.5/3.13/0.78/0.2/0.05 μM • Cdc34-FLAG 12.5 nM • Eu—Ub 6.25 nM • GST-E1 25 nM • Transfer: 45 μl To streptavidin coated plate containing 50 μl / well Superblock−TBS+1 mM NEM+100 nM biotinylated anti-FLAG antibody • Incubate 2 hours at RT • Wash 6×200 μl/well with 1× Wallac Wash Solution • Add 200 μl/well Wallac Enhancer Solution • Mix 5 min • Read • Positive Control: no test compound, 10 μl 5% DMSO • Negative Control: no Cdc34-FLAG, 30 μl 1×TEB (no ATP)
(§2) The IC50 is defined as 50% inhibition of E2-ubiquitin thioester formation, estimated as the difference in fluorescence obtained in the presence or absence of E2 (Cdc34, UbcH5 or UbcH10).

[2] = biological target: T2, UbcH5-Strep (SwissProt P51668) (Homo sapiens, UniProt P51668); test: UbcH5 thioester assay; details: thioester formation; n=2
T2 construct: GST with Factor Xa cleavage site (N, cleaved yes); made in house; host or cells: baculovirus, High Five insect cells
Description: (§3) The assays measuring the formation of the thioester intermediate between ubiquitin and the ubiquitin conjugating enzymes Cdc34 (SwissProt P49427) UbcH5 (SwissProt P51668) and UbcH10 (SwissProt O00762) are described below.
(§4) UbcH5 and UbcH10 thioester assays: Here, we describe an assay, based on time resolved fluorescence, to monitor the formation of the thioester intermediate between ubiquitin and the ubiquitin-conjugating enzymes UbcH5, respectively UbcH10. […]

[3] = biological target: T3, UbcH10-Strep (SwissProt O00762) (Homo sapiens, UniProt O00762); test: UbcH10 thioester assay; details: thioester formation; n=2
T3 construct: GST with Factor Xa cleavage site (N, cleaved yes); made in house; host or cells: baculovirus, High Five insect cells
T3 sequence (O00762 1-179): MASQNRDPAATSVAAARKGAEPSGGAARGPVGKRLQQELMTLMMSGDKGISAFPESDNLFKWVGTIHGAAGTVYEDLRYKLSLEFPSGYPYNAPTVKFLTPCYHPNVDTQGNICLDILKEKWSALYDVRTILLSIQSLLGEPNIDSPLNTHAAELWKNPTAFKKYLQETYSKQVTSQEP
Description: as §3, §4

Cdc34-FLAG = biological target: T4, Cdc34-FLAG (Homo sapiens, UniProt P49427); test: Cdc34 thioester assay in the presence of the chelating agents phenantroline or TSQ (zinc depletion / re-addition); details: for IC50: read-out: Compound I IC50
T4 construct: GST with Factor Xa cleavage site (N, cleaved yes); made in house; host or cells: baculovirus, High Five insect cells
T4 sequence (P49427 1-236): T1 sequence (P49427 1-236)
Method: as §1
Cdc34 thioester assay in the presence of the chelating agents phenantroline or TSQ In order to deplete Cdc34 from zinc prior to measuring the inhibitory activity of the test compounds, the Cdc34 thioester assay described above was modified as follows. • Mix: In non-absorbing plates on ice • 10 μl Cdc34-FLAG (62.5 nM) in 1×TEB (no ATP) • 10 μl 5× Phenanthroline/5×TSQ/buffer • 10 μl 5×ZnCl2/buffer • Incubate 10 min on ice • Add: 10 μl Test compound 5×conc. in 5% DMSO • 10 μl Eu—Ub (31.2 nM), GST-E1 (125 nM) in 1×TEB+ATP (Pre-incubated 10 min at RT). • Incubate 30 min at RT • Phenanthroline (Sigma # P-9375) • TSQ (Molecular Probes # M-688)
as §2

T2 sequence (P51668 whole entry): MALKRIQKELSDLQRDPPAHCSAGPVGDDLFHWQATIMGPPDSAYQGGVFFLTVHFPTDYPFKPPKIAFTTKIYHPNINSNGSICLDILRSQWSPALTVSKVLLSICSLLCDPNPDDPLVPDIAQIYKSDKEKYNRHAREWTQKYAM

IC50 ([1]; thioester formation, mean of n=5, read-out: Cdc34-FLAG IC50): 390 nM
IC50 [2]: > 50000 nM
IC50 [3]: > 50000 nM
IC50 (Cdc34-FLAG; 1,10-Phenanthroline 0 μM, ZnCl2 0 nM): 740 nM
IC50 (Cdc34-FLAG; 1,10-Phenanthroline 0 μM, ZnCl2 100 nM): 550 nM
IC50 (Cdc34-FLAG; 1,10-Phenanthroline 0 μM, ZnCl2 200 nM): 360 nM
IC50 (Cdc34-FLAG; 1,10-Phenanthroline 2 μM, ZnCl2 0 nM): 1400 nM
IC50 (Cdc34-FLAG; 1,10-Phenanthroline 2 μM, ZnCl2 100 nM): 640 nM
IC50 (Cdc34-FLAG; 1,10-Phenanthroline 2 μM, ZnCl2 200 nM): 710 nM
IC50 (Cdc34-FLAG; 1,10-Phenanthroline 10 μM, ZnCl2 0 nM): 8800 nM
IC50 (Cdc34-FLAG; 1,10-Phenanthroline 10 μM, ZnCl2 100 nM): 4600 nM
IC50 (Cdc34-FLAG; 1,10-Phenanthroline 10 μM, ZnCl2 200 nM): 1380 nM
inhibitory activity on Cdc34 thioester formation (Cdc34-FLAG; Cdc34 pretreated with 50 μM phenanthroline (FIG. 3)): completely abolished
IC50 (Cdc34-FLAG; TSQ 0 μM, ZnCl2 0 nM): 640 nM
IC50 (Cdc34-FLAG; TSQ 0 μM, ZnCl2 100 nM): 600 nM
IC50 (Cdc34-FLAG; TSQ 0 μM, ZnCl2 200 nM): 700 nM
IC50 (Cdc34-FLAG; TSQ 2 μM, ZnCl2 0 nM): 4200 nM
IC50 (Cdc34-FLAG; TSQ 2 μM, ZnCl2 100 nM): 950 nM
IC50 (Cdc34-FLAG; TSQ 2 μM, ZnCl2 200 nM): 1300 nM
IC50 (Cdc34-FLAG; TSQ 10 μM, ZnCl2 0 nM): 10600 nM
IC50 (Cdc34-FLAG; TSQ 10 μM, ZnCl2 100 nM): 3300 nM
IC50 (Cdc34-FLAG; TSQ 10 μM, ZnCl2 200 nM): 600 nM
Compound: Cc1cc(C)n(C(=O)c2cn3c(C)csc3n2)n1 [Compound I, (3,5-dimethyl-pyrazol-1-yl)-(3-methyl-imidazo[2,1-b]thiazol-6-yl)-methanone]
effect of phenantroline on inhibitory activity of the compounds (Cdc34-FLAG; compound added to Cdc34 before phenantroline (data not shown)): failed to abolish the inhibitory activity

IC50 ([1]; read-out: IC50 values as determined in the Cdc34 thioester assays): ≤ 1000 nM
Compound: Cc1cc(C)n(C(=O)c2cn3ccsc3n2)n1 [Compound II, (3,5-Dimethyl-pyrazol-1-yl)-imidazo[2,1-b]thiazol-6-yl-methanone]

IC50 [2]: > 50000 nM
IC50 [3]: > 50000 nM
Compound: CCCc1csc2nc(C(=O)n3nc(C)cc3C)cn12 [Compound V, (3,5-dimethyl-pyrazol-1-yl)-(3-propyl-imidazo[2,1-b]thiazol-6-yl)-methanone]

effect per se on the ability of Cdc34 to undergo thioester formation with ubiquitin (Cdc34-FLAG; FIG. 3): does not affect per se
Compound: c1cnc2c(c1)ccc1cccnc12 [phenathroline, 1,10-Phenanthroline, reference compound]
